According to ChEMBL document CHEMBL1134710, “The C4 hydroxyl group of phorbol esters is not necessary for protein kinase C binding” (Bioorg Med Chem Lett, 2001):

Legend:
HL-60 [1] = assay: (§1) Compound was tested in vitro for percent EBV0EA-inducing activity in […] cells at concentration 10e-6 M; format: functional, cell-based, Homo sapiens
HL-60 [2] = assay: Compound was tested in vitro for its ability to induce superoxide generation in HL-60 cells at concentration 10e-6 M; format: functional, Homo sapiens
HL-60 [3] = assay: Compound was tested in vitro for percent EBV0EA-inducing activity in […] cells at concentration 10e-5 M; format: functional, cell-based, Homo sapiens
HL-60 [4] = assay: Compound was tested in vitro for its ability to induce superoxide generation in HL-60 cells at concentration 10e-9 M; format: functional, Homo sapiens
HL-60 [5] = assay: Compound was tested in vitro for its ability to induce superoxide generation in HL-60 cells at concentration 10e-8 M; format: functional, Homo sapiens
HL-60 [6] = assay: as §1; format: functional, Homo sapiens
HL-60 [7] = assay: Compound was tested in vitro for percent EBV0EA-inducing activity in […] cells at concentration 10e-8 M; format: functional, Homo sapiens
HL-60 [8] = assay: Compound was tested in vitro for its ability to induce superoxide generation in HL-60 cells at concentration 10e-7 M; format: functional, Homo sapiens
HL-60 [9] = assay: Compound was tested in vitro for percent EBV0EA-inducing activity in […] cells at concentration 10e-7 M; format: functional, Homo sapiens
HL-60 [10] = assay: Compound was tested in vitro for percent EBV0EA-inducing activity in […] cells at concentration 10e-9 M; format: functional, Homo sapiens
[11] = target: T1, Protein kinase C gamma type (Homo sapiens, UniProt P05129); assay: Displacement of 3[H]PDBu from Protein kinase C gamma C1a domain
[12] = target: T2, Protein kinase C delta type (Homo sapiens, UniProt Q05655); assay: Displacement of 3[H]PDBu from Protein kinase C delta C1a domain
[13] = target: T1, Protein kinase C gamma type; assay: Displacement of 3[H]PDBu from Protein kinase C gamma C1b domain
[14] = target: T3, Protein kinase C alpha type (Homo sapiens, UniProt P17252); assay: Displacement of 3[H]PDBu from Protein kinase C alpha C1b domain
[15] = target: T4, Protein kinase C eta type (Homo sapiens, UniProt P24723); assay: Displacement of 3[H]PDBu from Protein kinase C eta C1a domain
[16] = target: Protein kinase C theta type (Homo sapiens, UniProt Q04759); assay: Displacement of 3[H]PDBu from Protein kinase C theta C1b domain
[17] = target: T5, Protein kinase C epsilon type (Homo sapiens, UniProt Q02156); assay: Displacement of 3[H]PDBu from Protein kinase C epsilon C1a domain
T5 sequence (Q02156 whole entry): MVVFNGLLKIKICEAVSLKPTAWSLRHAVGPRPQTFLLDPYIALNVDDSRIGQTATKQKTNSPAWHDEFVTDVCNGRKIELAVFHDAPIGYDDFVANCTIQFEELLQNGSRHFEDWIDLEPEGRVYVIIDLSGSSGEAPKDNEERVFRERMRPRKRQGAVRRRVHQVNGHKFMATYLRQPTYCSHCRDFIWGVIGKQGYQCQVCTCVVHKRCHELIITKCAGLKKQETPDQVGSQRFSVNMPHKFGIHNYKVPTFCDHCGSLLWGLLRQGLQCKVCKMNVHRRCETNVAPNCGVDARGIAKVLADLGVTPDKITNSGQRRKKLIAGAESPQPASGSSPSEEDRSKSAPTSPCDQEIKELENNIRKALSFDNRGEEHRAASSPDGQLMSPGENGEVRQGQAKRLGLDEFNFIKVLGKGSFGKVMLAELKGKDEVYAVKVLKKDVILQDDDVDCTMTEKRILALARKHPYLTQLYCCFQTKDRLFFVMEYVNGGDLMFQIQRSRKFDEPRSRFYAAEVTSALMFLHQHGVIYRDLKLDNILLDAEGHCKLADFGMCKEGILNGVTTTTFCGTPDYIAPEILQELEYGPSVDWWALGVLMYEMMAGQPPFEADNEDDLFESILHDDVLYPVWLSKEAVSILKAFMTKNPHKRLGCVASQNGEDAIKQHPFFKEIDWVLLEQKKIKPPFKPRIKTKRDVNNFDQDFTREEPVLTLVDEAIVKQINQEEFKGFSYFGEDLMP

[18] = target: T6, Protein kinase C beta type (Homo sapiens, UniProt P05771); assay: Displacement of 3[H]PDBu from Protein kinase C beta C1a domain
[19] = target: T2, Protein kinase C delta type; assay: Displacement of 3[H]PDBu from Protein kinase C delta C1b domain
[20] = target: T4, Protein kinase C eta type; assay: Displacement of 3[H]PDBu from Protein kinase C eta C1b domain
[21] = target: T3, Protein kinase C alpha type; assay: Displacement of 3[H]PDBu from Protein kinase C alpha C1a domain
[22] = target: T5, Protein kinase C epsilon type; assay: Displacement of 3[H]PDBu from Protein kinase C epsilon C1b domain
[23] = target: T6, Protein kinase C beta type; assay: Displacement of 3[H]PDBu from Protein kinase C beta C1b domain

T6 sequence (P05771 whole entry, the tested form may be a part): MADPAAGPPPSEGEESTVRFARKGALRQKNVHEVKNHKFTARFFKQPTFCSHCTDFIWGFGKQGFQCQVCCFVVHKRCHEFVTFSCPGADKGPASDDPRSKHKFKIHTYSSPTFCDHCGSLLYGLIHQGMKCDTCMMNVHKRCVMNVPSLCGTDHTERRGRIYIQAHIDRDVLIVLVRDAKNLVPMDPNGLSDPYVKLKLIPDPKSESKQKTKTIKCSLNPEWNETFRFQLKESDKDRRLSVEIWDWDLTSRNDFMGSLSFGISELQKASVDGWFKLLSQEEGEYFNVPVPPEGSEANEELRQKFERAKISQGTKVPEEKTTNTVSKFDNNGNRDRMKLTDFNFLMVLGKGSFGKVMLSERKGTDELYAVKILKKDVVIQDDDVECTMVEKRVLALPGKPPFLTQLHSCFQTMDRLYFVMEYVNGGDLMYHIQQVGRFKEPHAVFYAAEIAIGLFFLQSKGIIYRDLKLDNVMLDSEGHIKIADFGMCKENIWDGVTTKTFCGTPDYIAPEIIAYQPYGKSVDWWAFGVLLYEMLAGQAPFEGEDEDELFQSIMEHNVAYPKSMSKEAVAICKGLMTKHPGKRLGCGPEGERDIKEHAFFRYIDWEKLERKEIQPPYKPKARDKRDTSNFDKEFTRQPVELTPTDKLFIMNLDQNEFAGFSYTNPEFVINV
T4 sequence (P24723 whole entry, the tested form may be a part): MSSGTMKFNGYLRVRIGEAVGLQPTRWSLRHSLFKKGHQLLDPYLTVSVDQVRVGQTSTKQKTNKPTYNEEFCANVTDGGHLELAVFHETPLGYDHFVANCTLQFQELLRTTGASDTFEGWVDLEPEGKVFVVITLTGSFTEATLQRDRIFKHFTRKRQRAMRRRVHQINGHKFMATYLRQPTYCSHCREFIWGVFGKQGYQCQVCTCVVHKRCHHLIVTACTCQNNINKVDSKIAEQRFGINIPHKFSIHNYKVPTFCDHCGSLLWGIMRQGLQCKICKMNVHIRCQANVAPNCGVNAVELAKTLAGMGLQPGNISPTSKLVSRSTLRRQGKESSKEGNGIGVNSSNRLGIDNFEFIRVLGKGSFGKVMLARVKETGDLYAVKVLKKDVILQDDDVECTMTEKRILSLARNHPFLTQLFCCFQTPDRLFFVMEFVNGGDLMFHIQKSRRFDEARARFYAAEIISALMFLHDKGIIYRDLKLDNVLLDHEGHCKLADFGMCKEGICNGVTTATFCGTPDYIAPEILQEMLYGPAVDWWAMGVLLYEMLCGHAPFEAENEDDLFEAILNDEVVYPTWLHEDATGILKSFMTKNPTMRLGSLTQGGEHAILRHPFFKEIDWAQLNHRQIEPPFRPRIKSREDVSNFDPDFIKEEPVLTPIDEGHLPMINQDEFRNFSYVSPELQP
T2 sequence (Q05655 whole entry, the tested form may be a part): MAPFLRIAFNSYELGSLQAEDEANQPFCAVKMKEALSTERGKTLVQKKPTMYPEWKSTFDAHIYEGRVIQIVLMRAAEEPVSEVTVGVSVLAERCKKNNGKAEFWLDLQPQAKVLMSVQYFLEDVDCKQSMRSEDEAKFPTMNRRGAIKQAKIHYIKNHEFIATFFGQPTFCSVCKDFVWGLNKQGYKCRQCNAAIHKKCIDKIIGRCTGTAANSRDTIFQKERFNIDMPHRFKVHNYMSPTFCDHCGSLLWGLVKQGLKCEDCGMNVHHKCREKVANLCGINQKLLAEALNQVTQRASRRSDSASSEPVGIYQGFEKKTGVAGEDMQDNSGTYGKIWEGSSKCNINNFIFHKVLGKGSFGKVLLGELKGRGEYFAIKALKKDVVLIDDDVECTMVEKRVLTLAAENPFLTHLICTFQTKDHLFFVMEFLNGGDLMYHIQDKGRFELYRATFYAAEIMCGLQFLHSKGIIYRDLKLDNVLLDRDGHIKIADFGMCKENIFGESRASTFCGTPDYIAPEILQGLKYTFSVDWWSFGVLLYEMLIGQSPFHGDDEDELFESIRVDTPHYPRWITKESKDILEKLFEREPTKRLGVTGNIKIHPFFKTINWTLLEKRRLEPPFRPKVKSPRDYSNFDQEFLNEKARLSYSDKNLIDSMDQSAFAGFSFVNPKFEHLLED
Protein kinase C theta type, sequence (Q04759 whole entry, the tested form may be a part): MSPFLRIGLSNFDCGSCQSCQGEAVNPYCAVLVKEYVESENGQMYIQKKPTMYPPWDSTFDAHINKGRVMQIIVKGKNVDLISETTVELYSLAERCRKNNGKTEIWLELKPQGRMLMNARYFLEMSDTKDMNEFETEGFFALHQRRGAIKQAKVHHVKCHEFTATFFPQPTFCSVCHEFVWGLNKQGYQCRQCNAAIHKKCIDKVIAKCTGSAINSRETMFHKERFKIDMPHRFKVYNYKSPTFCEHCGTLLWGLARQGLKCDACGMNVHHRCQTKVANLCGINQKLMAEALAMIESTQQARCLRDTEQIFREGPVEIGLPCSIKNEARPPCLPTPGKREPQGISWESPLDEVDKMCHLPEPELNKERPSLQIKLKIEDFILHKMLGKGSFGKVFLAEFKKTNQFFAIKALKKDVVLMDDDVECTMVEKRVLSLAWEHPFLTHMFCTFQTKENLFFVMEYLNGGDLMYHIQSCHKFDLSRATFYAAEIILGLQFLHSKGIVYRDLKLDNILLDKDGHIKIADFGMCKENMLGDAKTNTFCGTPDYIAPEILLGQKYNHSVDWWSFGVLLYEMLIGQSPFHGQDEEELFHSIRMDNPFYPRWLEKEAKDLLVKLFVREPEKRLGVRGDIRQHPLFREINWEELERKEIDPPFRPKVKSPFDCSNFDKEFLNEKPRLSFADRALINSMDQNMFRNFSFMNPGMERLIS

Row | SMILES | Activity (HL-60 [2]) | Activity (HL-60 [4]) | Activity (HL-60 [5]) | Activity (HL-60 [6]) [%] | Activity (HL-60 [7]) [%] | Activity (HL-60 [8]) | Activity (HL-60 [9]) [%] | Activity (HL-60 [10]) [%] | other results
1 | CCCC(=O)O[C@@H]1[C@@H](C)[C@]2(O)[C@@H]3C=C(C)C(=O)[C@@H]3CC(CO)=C[C@H]2[C@@H]2C(C)(C)[C@]12OC(=O)CCC | 0.05 nM min-1 (10e-6*cells)-1 |  |  |  |  |  |  |  | Activity (HL-60 [1]): 2.7%; Activity (HL-60 [3]): 17.9%
2 | CCCC(=O)O[C@@H]1[C@@H](C)[C@@]2(O)[C@@H](C=C(CO)C[C@]3(O)C(=O)C(C)=C[C@@H]23)[C@@H]2C(C)(C)[C@]12OC(=O)CCC | 3.32 nM min-1 (10e-6*cells)-1 | 0 nM min-1 (10e-6*cells)-1 | 0.11 nM min-1 (10e-6*cells)-1 | 29.9 | 10.8 | 3.11 nM min-1 (10e-6*cells)-1 | 33.1 | 3.6 | 
3 | CCCC(=O)O[C@@H]1[C@@H](C)[C@]2(O)[C@@H]3C=C(C)C(=O)[C@H]3CC(CO)=C[C@H]2[C@@H]2C(C)(C)[C@]12OC(=O)CCC | 3.14 nM min-1 (10e-6*cells)-1 | 0.11 nM min-1 (10e-6*cells)-1 | 0.08 nM min-1 (10e-6*cells)-1 | 25.6 | 7 | 3.16 nM min-1 (10e-6*cells)-1 | 31.1 | 1.2 | Ki [11]: 5.23 nM; Ki [12]: 70.2 nM; Ki [13]: 1.84 nM; Ki [14]: 13.9 nM; Ki [15]: 14.9 nM; Ki [16]: 0.73 nM; Ki [17]: 4.49 nM; Ki [18]: 2.78 nM; Ki [19]: 0.55 nM; Ki [20]: 0.35 nM; Ki [21]: 4.05 nM; Ki [22]: 0.58 nM; Ki [23]: 2.23 nM
